target: human PAD4 (hPAD4) (Homo sapiens, UniProt Q9UM07); assay: RFMS human PAD4 functional assay (rapid-fire mass spectrum); type: biochemical; conditions: 5 nM hPAD4 enzyme, 250 μM BAEE, 50 μM Calcium; 30 min preincubation, 90 min reaction at 37° C.
How it was run: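 PAD4 (10 nM) preincubated 30 min with compound (top final 50 μM), then BAEE substrate added in pH 7.5 HEPES buffer with DTT, 50 μM calcium, TPEN; 90 min at 37° C. After TCA quench, citrulline derivatized with phenyl glyoxal (4 mM final, 30 min, 37° C) and quantified by RapidFire MS against internal standard.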

Chain of human PAD4 (hPAD4) (Q9UM07 whole entry): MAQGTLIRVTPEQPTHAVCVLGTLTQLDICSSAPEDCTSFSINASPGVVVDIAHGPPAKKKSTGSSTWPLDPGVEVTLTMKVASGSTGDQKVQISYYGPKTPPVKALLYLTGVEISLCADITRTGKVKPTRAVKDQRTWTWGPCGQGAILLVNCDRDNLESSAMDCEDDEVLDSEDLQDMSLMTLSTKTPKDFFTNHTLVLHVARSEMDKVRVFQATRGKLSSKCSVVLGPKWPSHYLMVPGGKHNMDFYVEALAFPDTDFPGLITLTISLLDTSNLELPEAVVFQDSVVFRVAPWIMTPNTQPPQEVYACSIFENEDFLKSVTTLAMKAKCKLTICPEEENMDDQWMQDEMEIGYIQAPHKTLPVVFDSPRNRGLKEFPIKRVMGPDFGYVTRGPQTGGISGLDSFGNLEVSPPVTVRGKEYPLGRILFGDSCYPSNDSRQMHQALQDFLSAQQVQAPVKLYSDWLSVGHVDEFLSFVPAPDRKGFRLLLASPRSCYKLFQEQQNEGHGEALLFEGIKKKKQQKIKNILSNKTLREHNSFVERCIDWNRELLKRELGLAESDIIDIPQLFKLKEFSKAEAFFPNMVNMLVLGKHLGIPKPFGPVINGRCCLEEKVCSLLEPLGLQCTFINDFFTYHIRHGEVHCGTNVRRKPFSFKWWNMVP

Compared with COc1cc(C(=O)N2C[C@H]3CC[C@@H]2[C@@H]3N)cc2nc(-c3cc4ccccc4n3CC3CC3)n(Cc3cn[nH]c3)c12 [Example 247, (1-((1H-pyrazol-4-yl)methyl)-2-(1-(cyclopropylmethyl)-1H-indol-2-yl)-7-methoxy-1H-benzo[d]imidazol-5-yl)((1R,4R,7R)-7-amino-2-azabicyclo[2.2.1]heptan-2-yl)methanone], COc1cc(C(=O)N2CC3CCC2[C@@H]3N)cc2nc(-c3cc4ccccc4n3CC3CC3)n(Cc3cn[nH]n3)c12 (stereo partly drawn) [Example 490, (7R)-2-{2-[1-(cyclopropylmethyl)-1H-indol-2-yl]-7-methoxy-1-[(2H-1,2,3-triazol-4-yl)methyl]-1H-1,3-benzodiazole-5-carbonyl}-2-azabicyclo[2.2.1]heptan-7-amine] is 2.1-fold higher in IC50: 27 nM for the first, 58 nM for the second.

COc1cc(C(=O)N2CC3CCC2[C@@H]3N)cc2nc(-c3cc4ccccc4n3CC3CC3)n(Cc3cnn(-c4ccncc4)c3)c12 (stereo partly shown) [Example 362] and COc1cc(-n2cc(Cn3c(-c4cc5ccccc5n4CC4CC4)nc4cc(C(=O)N5CC6CCC5[C@@H]6N)cc(OC)c43)cn2)ccn1 (stereo partly drawn) [Example 366, (7R)-2-{2-[1-(cyclopropylmethyl)-1H-indol-2-yl]-7-methoxy-1-{[1-(2-methoxypyridin-4-yl)-1H-pyrazol-4-yl]methyl}-1H-1,3-benzodiazole-5-carbonyl}-2-azabicyclo[2.2.1]heptan-7-amine] are within 1.5-fold of each other in IC50: 25 nM for the first, 28 nM for the second.

COc1cc(C(=O)N2C[C@H]3CC[C@@H]2[C@@H]3N)cc2nc(-c3cc4cccnc4n3CC3CC3)n(CC3CNC3)c12 [Example 306, (1R,4R,7R)-2-{1-[(azetidin-3-yl)methyl]-2-[1-(cyclopropylmethyl)-1H-pyrrolo[2,3-b]pyridin-2-yl]-7-methoxy-1H-1,3-benzodiazole-5-carbonyl}-2-azabicyclo[2.2.1]heptan-7-amine] and COc1cc(C(=O)N2C[C@H]3CC[C@@H]2[C@@H]3N)cc2nc(-c3cc4cccnc4n3CC3CC3)n(CC3CN(S(=O)(=O)C4CC4)C3)c12 [Example 332, (1R,4R,7R)-2-(1-{[1-(cyclopropanesulfonyl)azetidin-3-yl]methyl}-2-[1-(cyclopropylmethyl)-1H-pyrrolo[2,3-b]pyridin-2-yl]-7-methoxy-1H-1,3-benzodiazole-5-carbonyl)-2-azabicyclo[2.2.1]heptan-7-amine] are within 1.5-fold of each other in IC50: 243 nM for the first, 219 nM for the second.

Compared with COc1cc(C(=O)N2C[C@H]3CC[C@@H]2[C@@H]3N)cc2nc(-c3cc4cccnc4n3CC3CC3)n(C3CN(C(=O)c4ccnc(F)c4)C3)c12 [Example 193, (1R,4R,7R)-2-{2-[1-(cyclopropylmethyl)-1H-pyrrolo[2,3-b]pyridin-2-yl]-1-[1-(2-fluoropyridine-4-carbonyl)azetidin-3-yl]-7-methoxy-1H-1,3-benzodiazole-5-carbonyl}-2-azabicyclo[2.2.1]heptan-7-amine], COc1cc(C(=O)N2C[C@H]3CC[C@@H]2[C@@H]3N)cc2nc(-c3cc4cccnc4n3CC3CC3)n(CC3CCN(C(=O)c4ccnc(F)c4)CC3)c12 [Example 197, (1R,4R,7R)-2-{2-[1-(cyclopropylmethyl)-1H-pyrrolo[2,3-b]pyridin-2-yl]-1-{[1-(2-fluoropyridine-4-carbonyl)piperidin-4-yl]methyl}-7-methoxy-1H-1,3-benzodiazole-5-carbonyl}-2-azabicyclo[2.2.1]heptan-7-amine] is 23-fold lower in IC50: 2720 nM for the first, 117 nM for the second. The second is the more potent here.

Going from COc1cc(C(=O)N2C[C@H]3CC[C@@H]2[C@@H]3N)cc2nc(-c3cc4ccccc4n3CC3CC3)n(Cc3ccccn3)c12 [Example 280, (1R,4R,7R)-2-{2-[1-(cyclopropylmethyl)-1H-indol-2-yl]-7-methoxy-1-[(pyridin-2-yl)methyl]-1H-1,3-benzodiazole-5-carbonyl}-2-azabicyclo[2.2.1]heptan-7-amine] to COc1ccccc1C(=O)N1CC(Cn2c(-c3cc4ccccc4n3CC3CC3)nc3cc(C(=O)N4C[C@H]5CC[C@@H]4[C@@H]5N)cc(OC)c32)C1 [Example 168, (1R,4R,7R)-2-{2-[1-(cyclopropylmethyl)-1H-indol-2-yl]-7-methoxy-1-{[1-(2-methoxybenzoyl)azetidin-3-yl]methyl}-1H-1,3-benzodiazol-5-carbonyl}-2-azabicyclo[2.2.1]heptan-7-amine], the IC50 falls from 555 nM to 33 nM (17-fold).

COc1cc(C(=O)N2CC3CCC2[C@@H]3N)cc2nc(-c3cc4cccnc4n3CC3CC3)n(CC3CN(C(=O)c4ccccc4F)C3)c12 (stereo partly drawn) [Example 442, (7R)-2-{2-[1-(cyclopropylmethyl)-1H-pyrrolo[2,3-b]pyridin-2-yl]-1-{[1-(2-fluorobenzoyl)azetidin-3-yl]methyl}-7-methoxy-1H-1,3-benzodiazole-5-carbonyl}-2-azabicyclo[2.2.1]heptan-7-amine] and COc1cc(C(=O)N2CC3CCC2[C@@H]3N)cc2nc(-c3cc4cccnc4n3CC3CC3)n(CC3CN(C(=O)c4ccccc4Cl)C3)c12 (stereo partly drawn) [Example 428, (7R)-2-(1-{[1-(2-chlorobenzoyl)azetidin-3-yl]methyl}-2-[1-(cyclopropylmethyl)-1H-pyrrolo[2,3-b]pyridin-2-yl]-7-methoxy-1H-1,3-benzodiazole-5-carbonyl)-2-azabicyclo[2.2.1]heptan-7-amine] are within 1.5-fold of each other in IC50: 39 nM for the first, 28 nM for the second.

Going from COc1cnc(N2CC(Cn3c(-c4cc5cccnc5n4CC4CC4)nc4cc(C(=O)N5C[C@H]6CC[C@@H]5[C@@H]6N)cc(OC)c43)C2)cn1 [Example 33, (1R,4R,7R)-2-{2-[1-(cyclopropylmethyl)-1H-pyrrolo[2,3-b]pyridin-2-yl]-7-methoxy-1-{[1-(5-methoxypyrazin-2-yl)azetidin-3-yl]methyl}-1H-1,3-benzodiazole-5-carbonyl}-2-azabicyclo[2.2.1]heptan-7-amine] to COc1cc(C(=O)N2C[C@H]3CC[C@@H]2[C@@H]3N)cc2nc(-c3cc4cccnc4n3CC3CC3)n(C[C@H]3CCN(c4cncc(C#N)n4)C3)c12 [Example 203, 6-[(3S)-3-({5-[(1R,4R,7R)-7-amino-2-azabicyclo[2.2.1]heptane-2-carbonyl]-2-[1-(cyclopropylmethyl)-1H-pyrrolo[2,3-b]pyridin-2-yl]-7-methoxy-1H-1,3-benzodiazol-1-yl}methyl)pyrrolidin-1-yl]pyrazine-2-carbonitrile], the IC50 falls from 87 nM to 23 nM (3.8-fold).

Compared with COc1cc(C(=O)N2CC3CCC2[C@@H]3N)cc2nc(-c3cc4cccnc4n3CC3CC3)n(Cc3cnn(-c4cccc(O)n4)c3)c12 (stereo partly drawn) [Example 353, 6-[4-({5-[(7R)-7-amino-2-azabicyclo[2.2.1]heptane-2-carbonyl]-2-[1-(cyclopropylmethyl)-1H-pyrrolo[2,3-b]pyridin-2-yl]-7-methoxy-1H-1,3-benzodiazol-1-yl}methyl)-1H-pyrazol-1-yl]pyridin-2-ol], COc1cc(C(=O)N2CC3CCC2[C@@H]3N)cc2nc(-c3cc4cccnc4n3CC3CC3)n(Cc3cn(C)nc3C)c12 (stereo partly drawn) [Example 497, (7R)-2-{2-[1-(cyclopropylmethyl)-1H-pyrrolo[2,3-b]pyridin-2-yl]-1-[(1,3-dimethyl-1H-pyrazol-4-yl)methyl]-7-methoxy-1H-1,3-benzodiazole-5-carbonyl}-2-azabicyclo[2.2.1]heptan-7-amine] is 5.5-fold higher in IC50: 20 nM for the first, 109 nM for the second. The first is the more potent here.

COc1cc(C(=O)N2C[C@H]3CC[C@@H]2[C@@H]3N)cc2nc(-c3cc4cccnc4n3CC3CC3)n(C3CCNCC3)c12 [Example 309, (1R,4R,7R)-2-{2-[1-(cyclopropylmethyl)-1H-pyrrolo[2,3-b]pyridin-2-yl]-7-methoxy-1-(piperidin-4-yl)-1H-1,3-benzodiazole-5-carbonyl}-2-azabicyclo[2.2.1]heptan-7-amine] and COc1cc(C(=O)N2C[C@H]3CC[C@@H]2[C@@H]3N)cc2nc(-c3cc4cccnc4n3CC3CC3)n(C3CN(C(C)=O)C3)c12 [Example 191, 1-(3-{5-[(1R,4R,7R)-7-amino-2-azabicyclo[2.2.1]heptane-2-carbonyl]-2-[1-(cyclopropylmethyl)-1H-pyrrolo[2,3-b]pyridin-2-yl]-7-methoxy-1H-1,3-benzodiazol-1-yl}azetidin-1-yl)ethan-1-one] are within 1.5-fold of each other in IC50: 1160 nM for the first, 884 nM for the second.

First: COc1cc(C(=O)N2CC3CCC2[C@@H]3N)cc2nc(-c3cc4ccccc4n3CC3CC3)n(CC3CN(C(=O)c4cc[n+]([O-])cc4)C3)c12 (stereo partly drawn) [Example 461, 4-[3-({5-[(7R)-7-amino-2-azabicyclo[2.2.1]heptane-2-carobnyl]-2-[1-(cyclopropylmethyl)-1H-indol-2-yl]-7-methoxy-1H-1,3-benzodiazol-1-yl}methyl)azetidine-1-carbonyl]pyridin-1-ium-1-olate]
Second: COc1cc(C(=O)N2CC3CCC2[C@@H]3N)cc2nc(-c3cc4ccccc4n3CC3CC3)n(CC3CN(C(=O)c4ccsc4)C3)c12 (stereo partly drawn) [Example 416, (7R)-2-{2-[1-(cyclopropylmethyl)-1H-indol-2-yl]-7-methoxy-1-{[1-(thiophene-3-carbonyl)azetidin-3-yl]methyl}-1H-1,3-benzodiazole-5-carbonyl}-2-azabicyclo[2.2.1]heptan-7-amine]
The IC50 of the first is 6.8-fold higher: 68 nM for the first, 10 nM for the second.

Compared with COc1cc(C(=O)N2CCC[C@@H](N)C2)cc2nc(-c3cc4cccnc4n3CC3CC3)n(CC3CN(C(=O)c4ccccc4)C3)c12 [Example 413, (3R)-1-{1-[(1-benzoylazetidin-3-yl)methyl]-2-[1-(cyclopropylmethyl)-1H-pyrrolo[2,3-b]pyridin-2-yl]-7-methoxy-1H-1,3-benzodiazole-5-carbonyl}piperidin-3-amine], COc1cc(C(=O)N2CC3CCC2[C@@H]3N)cc2nc(-c3cc4ccccc4n3CC3CC3)n(C[C@H]3CCN(C(=O)c4ccc(C#N)cc4)C3)c12 (stereo partly drawn) [Example 226, 4-[(3S)-3-({5-[(1R,4R,7R)-7-aminobicyclo[2.2.1]heptane-2-carbonyl]-2-[1-(cyc1opropylmethyl)-1H-indo1-2-yl]-7-methoxy-1H-1,3-benzodiazol-1-yl}methyl)pyrrolidine-1-carbonyl]benzonitrile] is 7.1-fold lower in IC50: 263 nM for the first, 37 nM for the second.

From patent US12692254B2, “Benzimidazole inhibitors of PAD enzymes” (BRISTOL-MYERS SQUIBB COMPANY, priority 2018, dated 2026)
